Assays:
[1] = tested on: IL-2 stimulated pSTAT5 in Tall-1 T cells (JAK3); test: Cellular JAK3 potency assay: inhibition of IL-2 stimulated pSTAT5 in Tall-1 T cells; type: cell-based; settings: IL-2 300 ng/ml, pSTAT5 AlphaLisa, Tall-1 human T cell line; read-out: Tall-1 (pIC50) (converted)
Procedure: Assay 2: Cellular JAK3 Potency Assay: Inhibition of IL-2 Stimulated pSTAT5 in Tall-1 T Cells
The potency of test compounds for inhibition of interleukin-2 (IL-2) stimulated STATS phosphorylation was measured in the Tall-1 human T cell line (DSMZ) using AlphaLisa. Because IL-2 signals through JAK3, this assay provides a measure of JAK3 cellular potency.
Phosphorylated STATS was measured via the AlphaLISA SureFire Ultra pSTAT5 (Tyr694/699) kit (PerkinElmer).
Human T cells from the Tall-1 cell line were cultured in a 37° C., 5% CO2 humidified incubator in RPMI (Life Technologies) supplemented with 15% Heat Inactivated Fetal Bovine Serum (FBS, Life Technologies), 2 mM Glutamax (Life Technologies), 25 mM HEPES (Life Technologies) and 1× Pen/Strep (Life Technologies). Compounds were serially diluted in DMSO and dispensed acoustically to empty wells. Assay media (phenol red-free DMEM (Life Technologies) supplemented with 10% FBS (ATCC)) was dispensed (4 μL/well) and plates shaken at 900 rpm for 10 mins. Cells were seeded at 45,000 cells/well in assay media (4 μL/well), and incubated at 37° C., 5% CO2 for 1 hour, followed by the addition of IL-2 (R&D Systems; final concentration 300 ng/ml) in pre-warmed assay media ([…]) for 30 minutes. After cytokine stimulation, cells were lysed with 6 ul of 3× AlphaLisa Lysis Buffer (PerkinElmer) containing 1× PhosStop and Complete tablets (Roche). The lysate was shaken at 900 rpm for 10 minutes at room temperature (RT). Phosphorylated STATS was measured via the pSTAT5 AlphaLisa kit (PerkinElmer). Freshly prepared acceptor bead mixture was dispensed onto lysate (5 μL) under green filtered <100 lux light. Plates were shaken at 900 rpm for 2 mins, briefly spun down, and incubated for 2 hrs at RT in the dark. Donor beads were dispensed (5 μL) under green filtered <100 lux light. Plates were shaken at 900 rpm for 2 minutes, briefly spun down, and incubated overnight at RT in the dark. Luminescence was measured with excitation at 689 nm and emission at 570 nm using an EnVision plate reader (PerkinElmer) under green filtered <100 lux light.
To determine the inhibitory potency of test compounds in response to IL-2, the average emission intensity of beads bound to pSTAT5 was measured in a human T cell line. IC50 values were determined from analysis of the inhibition curves of signal intensity versus compound concentration. Data are expressed as pIC50 (negative decadic logarithm IC50) values (mean±standard deviation).

[2] = biological target: JAK3 (Homo sapiens (Human), UniProt P52333); test: Biochemical JAK and Tyk2 kinase assays (LanthaScreen): JAK3; settings: for JAK 3 (pKi) / Ki: 1 h pre-incubation, ATP at Km, pIC50 converted to pKi by Cheng-Prusoff; for JAK3 (pKi)-JAK1 (pKi): difference of pKi values, selectivity JAK3 over JAK1; for Ki: read-out: JAK 3 (pKi) (converted)
Sequence of JAK3 (P52333 whole entry): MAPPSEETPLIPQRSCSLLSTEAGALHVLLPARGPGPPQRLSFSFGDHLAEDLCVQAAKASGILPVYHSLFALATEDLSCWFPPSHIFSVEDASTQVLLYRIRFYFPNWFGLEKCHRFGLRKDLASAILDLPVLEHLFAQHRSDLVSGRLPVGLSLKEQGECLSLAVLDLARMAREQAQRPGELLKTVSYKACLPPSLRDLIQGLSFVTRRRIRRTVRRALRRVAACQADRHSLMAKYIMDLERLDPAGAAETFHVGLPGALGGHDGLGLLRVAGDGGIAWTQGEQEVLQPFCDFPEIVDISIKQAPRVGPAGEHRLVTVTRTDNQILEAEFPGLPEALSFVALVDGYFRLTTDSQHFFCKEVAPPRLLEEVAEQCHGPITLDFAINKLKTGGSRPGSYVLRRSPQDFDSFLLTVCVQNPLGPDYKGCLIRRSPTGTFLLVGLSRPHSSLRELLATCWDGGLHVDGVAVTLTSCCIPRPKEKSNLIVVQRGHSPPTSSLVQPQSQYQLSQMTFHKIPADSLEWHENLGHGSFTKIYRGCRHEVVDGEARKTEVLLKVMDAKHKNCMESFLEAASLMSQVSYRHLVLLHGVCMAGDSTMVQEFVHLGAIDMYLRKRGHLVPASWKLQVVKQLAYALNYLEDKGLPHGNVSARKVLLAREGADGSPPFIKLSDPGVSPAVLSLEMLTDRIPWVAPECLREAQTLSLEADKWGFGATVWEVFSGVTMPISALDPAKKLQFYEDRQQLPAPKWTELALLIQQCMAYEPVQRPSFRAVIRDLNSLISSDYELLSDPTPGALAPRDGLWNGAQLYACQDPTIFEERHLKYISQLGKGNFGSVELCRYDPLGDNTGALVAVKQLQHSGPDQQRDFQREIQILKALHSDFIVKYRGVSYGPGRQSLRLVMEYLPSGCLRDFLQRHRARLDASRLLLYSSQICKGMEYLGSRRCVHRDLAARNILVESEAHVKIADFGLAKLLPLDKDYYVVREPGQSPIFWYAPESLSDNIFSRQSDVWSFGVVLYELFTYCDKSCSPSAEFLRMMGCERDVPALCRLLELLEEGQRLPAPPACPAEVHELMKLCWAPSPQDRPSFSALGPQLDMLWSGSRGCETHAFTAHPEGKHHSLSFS
Procedure: (§1) Assay 1: Biochemical JAK and Tyk2 Kinase Assays
(§2) A panel of four LanthaScreen JAK biochemical assays (JAK1, 2, 3 and Tyk2) were carried in a common kinase reaction buffer (50 mM HEPES, pH 7.5, 0.01% Brij-35, 10 mM MgCl2, and 1 mM EGTA). Recombinant GST-tagged JAK enzymes and a GFP-tagged STAT1 peptide substrate were obtained from Life Technologies.
(§3) Serially or discretely diluted compounds were pre-incubated with each of the four JAK enzymes and the substrate in white 384-well microplates (Corning) at ambient temperature for 1 h. ATP was subsequently added to initiate the kinase reactions in 10 μL total volume, with 1% DMSO. […] Kinase reactions were allowed to proceed for 1 hour at ambient temperature before a 10 μL preparation of EDTA (10 mM final concentration) and Tb-anti-pSTAT1 (pTyr701) antibody (Life Technologies, 2 nM final concentration) in TR-FRET dilution buffer (Life Technologies) was added. The plates were allowed to incubate at ambient temperature for 1 h before being read on the EnVision reader (Perkin Elmer). Emission ratio signals (520 nm/495 nm) were recorded and utilized to calculate the percent inhibition values based on DMSO and background controls.
(§4) For dose-response analysis, percent inhibition data were plotted vs. compound concentrations, and IC50 values were determined from a 4-parameter robust fit model with the Prism software (GraphPad Software). Results were expressed as pIC50 (negative logarithm of IC50) and subsequently converted to pKi (negative logarithm of dissociation constant, Ki) using the Cheng-Prusoff equation.

[3] = biological target: Tyk2 (Homo sapiens (Human), UniProt P29597); test: Biochemical JAK and Tyk2 kinase assays (LanthaScreen): Tyk2; settings: 1 h pre-incubation, ATP at Km; pIC50 converted to pKi by Cheng-Prusoff
Sequence of Tyk2 (P29597 whole entry): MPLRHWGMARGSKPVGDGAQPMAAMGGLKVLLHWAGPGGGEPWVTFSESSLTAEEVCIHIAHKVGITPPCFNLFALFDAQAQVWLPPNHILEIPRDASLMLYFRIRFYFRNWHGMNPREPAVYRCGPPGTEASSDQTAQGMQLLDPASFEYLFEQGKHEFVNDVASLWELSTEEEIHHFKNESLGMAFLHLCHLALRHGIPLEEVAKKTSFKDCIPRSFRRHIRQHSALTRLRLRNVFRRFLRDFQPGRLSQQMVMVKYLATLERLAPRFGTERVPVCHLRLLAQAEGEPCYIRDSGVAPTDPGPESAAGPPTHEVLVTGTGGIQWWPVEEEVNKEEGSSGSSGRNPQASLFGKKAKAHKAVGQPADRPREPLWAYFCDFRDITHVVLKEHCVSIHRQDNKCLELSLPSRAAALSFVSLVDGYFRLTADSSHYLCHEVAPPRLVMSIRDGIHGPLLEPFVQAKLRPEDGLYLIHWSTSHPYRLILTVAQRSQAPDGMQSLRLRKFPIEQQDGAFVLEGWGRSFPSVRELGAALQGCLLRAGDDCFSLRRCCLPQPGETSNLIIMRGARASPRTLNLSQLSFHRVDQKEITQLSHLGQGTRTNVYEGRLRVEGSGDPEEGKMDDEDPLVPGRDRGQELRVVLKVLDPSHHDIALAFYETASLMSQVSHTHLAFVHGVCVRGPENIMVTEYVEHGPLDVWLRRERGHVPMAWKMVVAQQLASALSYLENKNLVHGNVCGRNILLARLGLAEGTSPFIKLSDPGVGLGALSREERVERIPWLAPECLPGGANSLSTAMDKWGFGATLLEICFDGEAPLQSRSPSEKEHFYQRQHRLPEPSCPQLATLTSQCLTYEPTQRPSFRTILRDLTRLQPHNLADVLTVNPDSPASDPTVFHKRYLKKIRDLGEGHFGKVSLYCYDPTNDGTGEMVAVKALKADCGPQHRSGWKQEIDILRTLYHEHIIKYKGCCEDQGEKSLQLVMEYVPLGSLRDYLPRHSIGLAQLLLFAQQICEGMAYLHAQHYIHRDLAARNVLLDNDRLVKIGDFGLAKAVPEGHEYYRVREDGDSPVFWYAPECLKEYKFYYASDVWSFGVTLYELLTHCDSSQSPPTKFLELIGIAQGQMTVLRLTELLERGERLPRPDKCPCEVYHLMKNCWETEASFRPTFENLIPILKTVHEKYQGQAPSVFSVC
Procedure: as §1, §2, §3, §4

[4] = biological target: JAK1 (Homo sapiens (Human), UniProt P23458); test: Biochemical JAK and Tyk2 kinase assays (LanthaScreen): JAK1; settings: 1 h pre-incubation, ATP at Km; pIC50 converted to pKi by Cheng-Prusoff
Sequence of JAK1 (P23458 whole entry): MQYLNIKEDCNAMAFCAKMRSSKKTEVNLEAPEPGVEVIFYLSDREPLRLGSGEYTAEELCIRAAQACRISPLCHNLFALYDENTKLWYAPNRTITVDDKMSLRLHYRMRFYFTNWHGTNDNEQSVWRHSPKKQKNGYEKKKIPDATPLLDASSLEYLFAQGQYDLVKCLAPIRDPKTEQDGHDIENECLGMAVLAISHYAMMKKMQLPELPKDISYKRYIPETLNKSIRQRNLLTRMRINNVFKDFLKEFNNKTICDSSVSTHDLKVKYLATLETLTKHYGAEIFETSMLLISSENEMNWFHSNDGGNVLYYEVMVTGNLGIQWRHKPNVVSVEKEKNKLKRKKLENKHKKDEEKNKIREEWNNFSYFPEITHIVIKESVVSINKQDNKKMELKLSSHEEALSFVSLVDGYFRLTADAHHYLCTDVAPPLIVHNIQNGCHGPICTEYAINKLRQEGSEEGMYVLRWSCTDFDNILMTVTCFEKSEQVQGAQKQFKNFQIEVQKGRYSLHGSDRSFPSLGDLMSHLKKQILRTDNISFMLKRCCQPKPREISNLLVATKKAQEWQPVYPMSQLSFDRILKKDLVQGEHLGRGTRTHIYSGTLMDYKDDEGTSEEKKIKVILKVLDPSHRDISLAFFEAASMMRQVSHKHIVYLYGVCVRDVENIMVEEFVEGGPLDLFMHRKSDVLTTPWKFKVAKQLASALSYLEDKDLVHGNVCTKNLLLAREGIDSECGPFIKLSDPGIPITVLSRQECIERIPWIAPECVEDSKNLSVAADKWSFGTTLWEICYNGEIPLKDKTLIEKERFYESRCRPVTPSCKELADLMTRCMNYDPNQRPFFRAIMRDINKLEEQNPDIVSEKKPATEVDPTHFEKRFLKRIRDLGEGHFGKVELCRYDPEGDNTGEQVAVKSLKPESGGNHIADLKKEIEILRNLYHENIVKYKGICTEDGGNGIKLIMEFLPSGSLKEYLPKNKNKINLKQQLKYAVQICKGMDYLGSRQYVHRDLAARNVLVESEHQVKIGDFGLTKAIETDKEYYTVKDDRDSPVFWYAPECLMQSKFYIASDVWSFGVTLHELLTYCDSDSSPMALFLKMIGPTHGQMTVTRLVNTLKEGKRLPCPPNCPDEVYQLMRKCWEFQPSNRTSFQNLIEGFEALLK
Procedure: as §1, §2, §3, §4

[5] = biological target: JAK2 (Homo sapiens (Human), UniProt O60674); test: Biochemical JAK and Tyk2 kinase assays (LanthaScreen): JAK2; settings: 1 h pre-incubation, ATP at Km; pIC50 converted to pKi by Cheng-Prusoff
Sequence of JAK2 (O60674 whole entry): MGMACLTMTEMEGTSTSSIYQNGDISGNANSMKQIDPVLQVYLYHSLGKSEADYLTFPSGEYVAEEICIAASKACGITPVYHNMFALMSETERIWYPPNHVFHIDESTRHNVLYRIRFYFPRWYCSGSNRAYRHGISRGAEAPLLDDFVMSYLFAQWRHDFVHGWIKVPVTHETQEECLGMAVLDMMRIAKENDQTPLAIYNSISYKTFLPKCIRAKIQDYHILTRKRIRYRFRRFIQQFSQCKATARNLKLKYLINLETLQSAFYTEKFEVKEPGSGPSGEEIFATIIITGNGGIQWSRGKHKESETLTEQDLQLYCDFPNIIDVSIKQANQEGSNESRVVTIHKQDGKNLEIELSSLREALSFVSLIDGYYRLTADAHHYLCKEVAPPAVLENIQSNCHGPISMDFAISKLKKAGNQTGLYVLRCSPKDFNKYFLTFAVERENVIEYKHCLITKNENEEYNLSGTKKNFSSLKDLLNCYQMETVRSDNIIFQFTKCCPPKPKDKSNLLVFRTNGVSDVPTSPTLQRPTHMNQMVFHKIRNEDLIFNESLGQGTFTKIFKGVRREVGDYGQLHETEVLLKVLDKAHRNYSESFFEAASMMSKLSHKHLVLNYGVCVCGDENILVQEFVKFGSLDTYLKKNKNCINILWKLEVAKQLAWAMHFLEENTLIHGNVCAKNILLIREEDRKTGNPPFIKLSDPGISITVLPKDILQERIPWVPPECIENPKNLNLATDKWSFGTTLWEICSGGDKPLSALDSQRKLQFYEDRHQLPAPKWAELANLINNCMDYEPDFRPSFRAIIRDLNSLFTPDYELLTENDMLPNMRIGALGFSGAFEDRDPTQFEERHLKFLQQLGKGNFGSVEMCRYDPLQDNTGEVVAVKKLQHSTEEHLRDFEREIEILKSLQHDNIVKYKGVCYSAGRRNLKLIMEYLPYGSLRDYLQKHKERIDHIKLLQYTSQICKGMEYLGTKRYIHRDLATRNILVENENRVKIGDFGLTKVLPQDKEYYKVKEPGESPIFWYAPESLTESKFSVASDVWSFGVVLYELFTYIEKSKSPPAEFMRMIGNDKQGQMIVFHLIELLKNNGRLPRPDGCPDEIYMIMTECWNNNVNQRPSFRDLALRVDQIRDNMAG
Procedure: as §1, §2, §3, §4

[6] = tested on: Caco-2 cell monolayers; test: Caco-2 permeation assay; type: in vitro ADME, human; settings: 5 μM, A to B, + Verapamil 25 μM, 120 minutes
Source text: Assay 5: Caco-2 Permeation Assay

SMILES	IC50 [1]	JAK 3 (pKi) [2]	JAK3 (pKi)-JAK1 (pKi) [2]	Tyk 2 (pKi) [3]	JAK 1 (pKi) [4]	JAK 2 (pKi) [5]	Ki [2]	Caco Kp 10^−6 cm/sec [6]
C=CC(=O)N1CC[C@@H](Oc2cc(-c3ccc(O)cc3)cn3cncc23)C[C@@H]1C [Example 39]	31.6 to 200 nM	A (A represents a pKi value≥10 (Ki≤0.1 nM))	A (A represents a value of 3 or above)	E (E represents a pKi value of 7 or below (Ki of 100 nM or above))	E (E represents a pKi value of 7 or below (Ki of 100 nM or above))	E (E represents a pKi value of 7 or below (Ki of 100 nM or above))	–	–
C=CC(=O)N1CCC[C@H](Oc2cc(-c3ccc(O)cc3)cn3cncc23)C1 [Example 27]	200 to 1000 nM	–	A (A represents a value of 3 or above)	E (E represents a pKi value of 7 or below (Ki of 100 nM or above))	E (E represents a pKi value of 7 or below (Ki of 100 nM or above))	E (E represents a pKi value of 7 or below (Ki of 100 nM or above))	0.1 to 1 nM	–
C=CC(=O)N1CC2(CC(Oc3cc(-c4ccc(O)cc4)cn4cncc34)C2)C1 [Example 37]	200 to 1000 nM	–	A (A represents a value of 3 or above)	E (E represents a pKi value of 7 or below (Ki of 100 nM or above))	E (E represents a pKi value of 7 or below (Ki of 100 nM or above))	E (E represents a pKi value of 7 or below (Ki of 100 nM or above))	0.1 to 1 nM	–
C=CC(=O)N1CC[C@H](COc2cc(-c3ccc(O)cc3)cn3cncc23)C1 [Example 26]	200 to 1000 nM	–	A (A represents a value of 3 or above)	E (E represents a pKi value of 7 or below (Ki of 100 nM or above))	E (E represents a pKi value of 7 or below (Ki of 100 nM or above))	E (E represents a pKi value of 7 or below (Ki of 100 nM or above))	0.1 to 1 nM	–
C=CC(=O)N1CC(COc2nc(-c3ccc(O)cc3)cn3cncc23)C1 [Example 6, 1-(3-(((6-(4-hydroxyphenyl)imidazo[1,5-a]pyrazin-8-yl)oxy)methyl)azetidin-1-yl)prop-2-en-1-one]	31.6 to 200 nM	–	A (A represents a value of 3 or above)	E (E represents a pKi value of 7 or below (Ki of 100 nM or above))	E (E represents a pKi value of 7 or below (Ki of 100 nM or above))	E (E represents a pKi value of 7 or below (Ki of 100 nM or above))	0.1 to 1 nM	B (B represents a value between 5×10^−6 and 10×10^−6 cm/sec)
CN(C)C/C=C/C(=O)N1CC(COc2cc(-c3ccc(O)c(Cl)c3)cn3cncc23)C1 [Example 23]	200 to 1000 nM	–	A (A represents a value of 3 or above)	E (E represents a pKi value of 7 or below (Ki of 100 nM or above))	E (E represents a pKi value of 7 or below (Ki of 100 nM or above))	E (E represents a pKi value of 7 or below (Ki of 100 nM or above))	0.1 to 1 nM	–
C=CC(=O)N1CC(COc2cc(-c3cc(Cl)c(O)c(Cl)c3)cn3cncc23)C1 [Example 33]	31.6 to 200 nM	A (A represents a pKi value≥10 (Ki≤0.1 nM))	A (A represents a value of 3 or above)	–	E (E represents a pKi value of 7 or below (Ki of 100 nM or above))	–	–	A (A represents a value below 5×10^−6 cm/sec)
C=CC(=O)N1CCC(Nc2cc(-c3ccc(O)cc3)cn3cncc23)CC1 [Example 4, 1-(4-((6-(4-hydroxyphenyl)imidazo[1,5-a]pyridin-8-yl)amino)piperidin-1-yl)prop-2-en-1-one]	–	–	B (B represents a value of 2.3 to 3)	E (E represents a pKi value of 7 or below (Ki of 100 nM or above))	E (E represents a pKi value of 7 or below (Ki of 100 nM or above))	E (E represents a pKi value of 7 or below (Ki of 100 nM or above))	1 to 10 nM	–
C=CC(=O)N1CC2(CCC2Oc2cc(-c3ccc(O)cc3)cn3cncc23)C1 (centres unmarked) [Example 3, 1-(5-((6-(4-hydroxyphenyl)imidazo[1,5-a]pyridin-8-yl)oxy)-2-azaspiro[3.3]heptan-2-yl)prop-2-en-1-one]	31.6 to 200 nM	–	A (A represents a value of 3 or above)	E (E represents a pKi value of 7 or below (Ki of 100 nM or above))	E (E represents a pKi value of 7 or below (Ki of 100 nM or above))	E (E represents a pKi value of 7 or below (Ki of 100 nM or above))	0.1 to 1 nM	–
C=CC(=O)N1CC[C@@H](Oc2cc(-c3ccc(O)cc3)cn3cncc23)[C@@H](C)C1 [Example 41]	31.6 to 200 nM	A (A represents a pKi value≥10 (Ki≤0.1 nM))	A (A represents a value of 3 or above)	E (E represents a pKi value of 7 or below (Ki of 100 nM or above))	E (E represents a pKi value of 7 or below (Ki of 100 nM or above))	E (E represents a pKi value of 7 or below (Ki of 100 nM or above))	–	–
C=CC(=O)N1CC(COc2cc(-c3ccc(O)cc3C)cn3cncc23)C1 [Example 44]	31.6 to 200 nM	–	A (A represents a value of 3 or above)	E (E represents a pKi value of 7 or below (Ki of 100 nM or above))	E (E represents a pKi value of 7 or below (Ki of 100 nM or above))	E (E represents a pKi value of 7 or below (Ki of 100 nM or above))	0.1 to 1 nM	–
C=CC(=O)N1CC[C@H](Oc2cc(-c3ccc(O)cc3)cn3cncc23)C1 [Example 1, (S)-1-(3-((6-(4-hydroxyphenyl)imidazo[1,5-a]pyridin-8-yl)oxy)pyrrolidin-1-yl)prop-2-en-1-one]	200 to 1000 nM	–	A (A represents a value of 3 or above)	E (E represents a pKi value of 7 or below (Ki of 100 nM or above))	E (E represents a pKi value of 7 or below (Ki of 100 nM or above))	E (E represents a pKi value of 7 or below (Ki of 100 nM or above))	0.1 to 1 nM	–

Source: patent US10851102B2, “Imidazole and triazole containing bicyclic compounds as JAK inhibitors” (THERAVANCE BIOPHARMA R&D IP, LLC, priority 2019, dated 2020)
